Data on twelve compounds can be found in US9045466B2, “Amidine compound or salt thereof” (priority 2011, dated 2015).

Assay [1] deals with Candida albicans TIMM 1623. In words: Fungal susceptibility test, broth microdilution method (MIC). Particulars: TIMM1623, 48 h. Type of assay: cell-based. How it is done:
(§1) The fungal susceptibility tests on test substances were conducted by the broth microdilution method equivalent to Clinical and Laboratory Standards Institute method. The medium used in the susceptibility tests was RPMI1640 adjusted to pH 7.0 with 0.165 mol/L morpholinepropanesulfonic acid (MOPS) and 50% sodium hydroxide (RPMI/MOPS). Each test substance was dissolved in DMSO and serially diluted in 2-fold increments with DMSO on a 96-well microplate. Then, the dilutions were dispensed by 1 μL to a 96-well microplate. Candida albicans TIMM 1623 cultured overnight at 35° C. in Sabouraud's agar medium was suspended in sterile saline. The number of cells was counted under a biological microscope, and the fungal suspension was diluted with RPMI/MOPS to prepare the inoculum solution (approximately 1×10^3 cells/mL). Alternatively, Candida albicans TIMM 1623 stored at −80° C. was diluted with RPMI/MOPS to prepare the inoculum solution (approximately 1×10^3 CFU/mL). Aspergillus fumigatus TIMM 0063 stored at 5° C. was diluted with RPMI/MOPS to prepare the inoculum solution (approximately 1×10^4 CFU/mL). Trichophyton rubrum NBRC 5467 stored at 5° C. or −80° C. was diluted with RPMI/MOPS to prepare the inoculum solution (approximately 2×10^3 CFU/mL). The 199 μL of inoculum solution was dispensed to each well to prepare the microplate containing the designated concentrations of test substance, medium and fungal cells. Candida albicans and Aspergillus fumigatus were cultured at 35° C. for 2 days. Trichophyton rubrum was cultured at 35° C. for 4 days. After the completion of culture, MIC was determined by visual observation. The MICs of Candida albicans and Aspergillus fumigatus were set to the lowest concentration at which approximately 50% growth inhibition was seen, when compared with a growth control without the addition of the test substance. The MIC of Trichophyton rubrum was set to the lowest concentration at which approximately 80% growth inhibition was seen, when compared with a growth control without the addition of the test substance.
Background: In broth dilution the organism is exposed to a series of concentrations in liquid medium.

The test system of assay [2] is Trichophyton rubrum NBRC 5467. The assay is described as above. Type of assay: cell-based. The conditions noted are these: NBRC5467, 96 h. How it is done: as §1
The mark [3] stands for this setting: pH 7, read-out: MIC (μg/mL) C. albicans TIMM1623.
Where [4] appears, read: pH 7, read-out: MIC (μg/mL) T. rubrum NBRC5467.
[5] abbreviates: RPMI/MOPS pH 7.0, 35° C. for 2 days, visual, lowest concentration with approximately 50% growth inhibition, read-out: MIC (μg/mL) C. albicans TIMM1623.
The mark [6] stands for this setting: RPMI/MOPS pH 7.0, 35° C. for 4 days, visual, lowest concentration with approximately 80% growth inhibition, read-out: MIC (μg/mL) T. rubrum NBRC5467.

Converted amounts (≈) assume the structure as drawn. Where a name gives a salt, the structure may show the parent alone. Read-outs that look alike come from different tables or passages of the source.

As for `CCN(C)/C=N/c1cc(C)c(Cc2nc(-c3cnc(C(C)(C)C(F)(F)F)cn3)cs2)cc1C` [Example 4, N′-[2,5-Dimethyl-4-({4-[5-(1,1,1-trifluoro-2-methylpropan-2-yl)pyrazin-2-yl]-1,3-thiazol-2-yl}methyl)phenyl]-N-ethyl-N-methylimidoformamide hydrochloride], the results for the MIC in assay [1] (setting [3]) and in assay [2] (setting [4]) were 0.0313 µg/mL and 0.002 µg/mL, respectively. Consider `CCN(C)/C=N/c1cc(C)c(Cc2nc(-c3ccc(C(=O)NCC(C)(C)C)cc3)cs2)cc1C` [Example 99, N-(2,2-Dimethylpropyl)-4-{2-[4-({(E)-[ethyl(methyl)amino]methylidene}amino)-2,5-dimethylbenzyl]-1,3-thiazol-4-yl}benzamide], for which the MIC in assay [1] (setting [5]) was determined as 0.0625 µg/mL (≈ 0.131 µM). For `CCN(C)/C=N/c1cc(C)c(Cc2nc(-c3ccc(C(=O)NC(C)(C)C)cc3)cs2)cc1C` [Example 24, N-Tert-butyl-4-{2-[4-({(E)-[ethyl(methyl)amino]methylidene}amino)-2,5-dimethylbenzyl]-1,3-thiazol-4-yl}benzamide dihydrochloride], the MIC in assay [1] (setting [3]) came to 0.0313 µg/mL; in assay [2] (setting [4]), 0.0039 µg/mL.

As for `CCN(C)/C=N/c1cc(C)c(Cc2nc(-c3ccc(C(=O)N(C)CC)cc3)cs2)cc1C` [Example 42, N-Ethyl-4-{2-[4-({(E)-[ethyl(methyl)amino]methylidene}amino)-2,5-dimethylbenzyl]-1,3-thiazol-4-yl}-N-methylbenzamide], in assay [1] (setting [5]), the MIC was 0.0625 µg/mL (≈ 0.139 µM). In the case of `CCN(C)/C=N/c1cc(C)c(Cc2nc(-c3ccc(C(=O)OC)cc3)cs2)cc1C` [Example 14, Methyl 4-{2-[4-({(E)-[ethyl(methyl)amino]methylidene}amino)-2,5-dimethylbenzyl]-1,3-thiazol-4-yl}benzoate dihydrochloride], in assay [1] (setting [3]), the MIC was determined as 0.0625 µg/mL.

For `CCN(C)/C=N/c1cc(C)c(Cc2nc(NC(=O)OC3CCCCC3)cs2)cc1C` [Example 97, Cyclohexyl {2-[4-({(E)-[ethyl(methyl)amino]methylidene}amino)-2,5-dimethylbenzyl]-1,3-thiazol-4-yl}carbamate hydrochloride], the MIC in assay [2] (setting [4]) was 0.0078 µg/mL. Regarding `CCN(C)/C=N/c1cc(C)c(Cc2nc(C(=O)N(C)C3CCCCC3)cs2)cc1C` [Example 71, N-Cyclohexyl-2-[4-({(E)-[ethyl(methyl)amino]methylidene}amino)-2,5-dimethylbenzyl]-N-methyl-1,3-thiazole-4-carboxamide hydrochloride], the MIC in assay [2] (setting [4]) was determined as 0.0156 µg/mL. In the case of `CCN(C)/C=N/c1cc(C)c(Cc2nc(-c3ccc4c(c3)CNC4=O)cs2)cc1C` [Example 89, N′-(2,5-Dimethyl-4-{[4-(1-oxo-2,3-dihydro-1H-isoindol-5-yl)-1,3-thiazol-2-yl]methyl}phenyl)-N-ethyl-N-methylimidoformamide], the MIC in assay [2] (setting [6]) amounted to 0.0625 µg/mL (≈ 0.149 µM). As for `CCN(C)/C=N/c1cc(C)c(Cc2nc(C(=O)c3ccccc3)cs2)cc1C` [Example 19, N′-(2,5-Dimethyl-4-{[4-(phenylcarbonyl)-1,3-thiazol-2-yl]methyl}phenyl)-N-ethyl-N-methylimidoformamide dihydrochloride], the MIC in assay [2] (setting [4]) came to 0.0156 µg/mL. With `CCN(C)/C=N/c1cc(C)c(Cc2nc(C(=O)NC3CCCC3)cs2)cc1C` [Example 74, N-Cyclopentyl-2-[4-({(E)-[ethyl(methyl)amino]methylidene}amino)-2,5-dimethylbenzyl]-1,3-thiazole-4-carboxamide], in assay [2] (setting [6]), the MIC is 0.0156 µg/mL (≈ 0.0391 µM). Same read-out and setting: in the case of `CCN(C)/C=N/c1cc(C)c(Cc2nc(OC(C)C)cs2)cc1C` [Example 32, N′-(2,5-Dimethyl-4-{[4-(propan-2-yloxy)-1,3-thiazol-2-yl]methyl}phenyl)-N-ethyl-N-methylimidoformamide] it was 0.0039 µg/mL (≈ 0.0113 µM).

For `CCN(C)/C=N/c1cc(C)c(Cc2nc(C(=O)c3ccc(C(F)(F)F)cc3)cs2)cc1C` [Example 36, N′-{2,5-Dimethyl-4-[(4-{[4-(trifluoromethyl)phenyl]carbonyl}-1,3-thiazol-2-yl)methyl]phenyl}-N-ethyl-N-methylimidoformamide hydrobromide], the MIC in assay [1] (setting [5]) turned out to be 0.0313 µg/mL.
